The text below walks through data of patent US20120264810A1, “COMPOSITIONS AND METHODS FOR ENHANCING CELLULAR UPTAKE AND INTRACELLULAR DELIVERY OF LIPID PARTICLES” (The University of British Columbia, priority 2009, published 2012).

Series [1] relates to GAPDH protein expression in LNCaP cells. Kind of series: GAPDH siRNA-LN knockdown in LNCaP cells. The series is classed as cell-based, human. To be noted: data not shown. As to the method:
FIG. 5: Raw264.7 cells were treated for 24 hours with siRNACy3 encapsulated in DLinDMA LNs in the presence or absence of 5% CQ-lipid. A lipid label, SPDiO, was incorporated into the LN to monitor uptake. LN uptake was assessed by (A) SPDiO fluorescence and distribution of siRNA was assessed by (B) Cy3 fluorescence using the Cellomics ArrayScan VTI. (C) Raw264.7 cells were incubated with the same LN formulations as in (B) for 24 hours at 10 μg/mL siRNACy3. siRNACy3 distribution was examined by confocal microscopy. (D) GAPDH siRNA was formulated into LN particles comprising of 40% DLinDMA with 0% CQ-lipid or 40% DLinDMA with 5% CQ-lipid. Raw264.7 cells were treated with 5, 10 and 20 μg/mL of siRNA for 48 and 72 hours. GAPDH protein expression was assessed by western blotting against anti-GAPDH and anti-actin. (E) LNCaP cells were treated accordingly as in (D).
Perhaps most importantly, we wanted to determine whether the enhanced cytosolic distribution of siRNACy3 observed with the CQ-lipid correlated to enhanced gene knockdown. Glyceraldehyde 3-phosphate dehydrogenase (GAPDH) is an ubiquitously expressed cytosolic protein and therefore knockdown efficiency of encapsulated siRNA can be tested in different cell lines (Barber et al., 2005). Raw264.7 cells were treated with LN of varying concentration of GAPDH siRNA for 24, 48 and 72 hours. Total protein was isolated and analyzed for GAPDH levels by immunoblotting. […] The function of GAPDH siRNA was specific since actin expression was unaltered (FIG. 5D). To confirm the function of the CQ-lipid in the LN-siRNA-mediated gene knockdown, GAPDH silencing was also assessed in LNCaP cells (FIG. 5E).

The next series has as its system HeLa cells. Kind of series: LNP uptake in HeLa cells (SPDiO fluorescence, Cellomics / confocal). The series is classed as cell-based, human. The conditions noted are these: 30 nM ouabain, 24 hrs, confocal quantification. As to the method: All cell lines were seeded at 5000 to 20,000 cells/well of 96-well ViewPlate (PerkinElmer, Shelton, Conn., USA) in 100 μl of medium and were allowed to grow overnight. Fresh medium containing 5 or 10 μg/ml of siRNA encapsulated in LNP was added the next day. Small molecules were either added manually or pinned from 1000-fold stocks in DMSO using a pinning robot equipped with 0.4 mm pins (BioRobotics, Cambridge, UK). Cells were incubated for 24 h. Cells were then washed once in PBSCM (1×PBS containing […] CaCl2), fixed in 3% paraformaldehyde containing Hoescht's stain for 15 min, washed once in PBSCM and stored in 100 μl of PBSCM.
Plates were imaged using a Cellomics Arrayscan VTI HCS Reader (Thermo Scientific, Pittsburgh, Pa., USA). Images were acquired using a 20× PlanFluor objective and a XF93 filter set. Object identification and image analysis were performed using the Cellomics Compartmental Analysis algorithm. Cellular SPDiO and siRNA-Cy3 fluorescence intensities were measured for a minimum of 400 cells and the average pixel intensity was examined. For confocal microscopy, cells grown on glass coverslips were washed once in 1×PBS, fixed in 3% paraformaldehyde containing Hoechst's stain for 15 min, washed again and mounted on slides. Images were captured on an Olympus FV1000 (Olympus, Center Valley, Pa., USA) laser scanning microscope and cellular SPDiO fluorescence intensity was analyzed using ImageJ (NIH, http://rsb.info.nih.gov/ij/).

The target of series [2] is rodent α1-isoform of Na+/K+-ATPase (Rattus norvegicus, UniProt P06685). The conditions noted are these: cited from earlier work.
In series [3] the target is human α1-isoform of Na+/K+-ATPase (Homo sapiens, UniProt P05023). The conditions noted are these: cited from earlier work.
The subject of series [4] is GAPDH expression in HeLa cells. Briefly: siGAPDH-LNP knockdown by immunoblotting in HeLa cells. The series is classed as cell-based, human. How it is done: HeLa cells were plated in twelve-well plates for indicated times. They were then washed in PBS and extracted in RIPA buffer (1% NP-40 and 0.5% Deoxycholic in 1×PBS) supplemented with protease inhibitor tablets (Roche Diagnostics). Total protein quantified by the Bradford Assay was analyzed by immunoblotting using antibodies to GAPDH, β-actin (Abcam, Cambridge, Mass.) or ATP1A1 ((Millipore, Billerica, Mass.). Antigen-antibody complexes in immunoblots were detected using Millipore Immobilon Western Chemiluminescent HRP Substrate (Millipore, Billerica, Mass.).
Knockdown effect of our LNP systems in the presence or absence of ouabain was also examined (FIG. 9B). GAPDH was chosen as a target gene since it is ubiquitously expressed at high levels in all cell types. siGAPDH or negative control siScramble was encapsulated in our LNP systems and incubated with cells for 24 hrs in the presence or absence of ouabain. Cells were further incubated in plain medium for 48 hrs before protein expression was analyzed. We observed that cells incubated continuously with ouabain for longer than 24 hrs were unhealthy (data not shown). […] It is noteworthy that LNP encapsulating siGAPDH or siScramble contained 1 mol % of PEG-s-DMG. […]
On the technique in general: Immunoblotting shows a protein as a band on a membrane.

In the case of `C[C@@H]1O[C@@H](O[C@H]2C[C@@H](O)[C@]3(CO)[C@H]4[C@H](O)C[C@]5(C)[C@@H](C6=CC(=O)OC6)CC[C@]5(O)[C@@H]4CC[C@]3(O)C2)[C@H](O)[C@H](O)[C@H]1O` [ouabain], the “GAPDH knockdown with ouabain” value in series [1] is “enhanced GAPDH knockdown”. For the same compound, the “cellular SPDiO fluorescence (LNP content) relative to untreated cells” value in the series with HeLa cells amounted to 2.5 times. In addition, the “sensitivity to ouabain, less than human α1-isoform” value in series [2] is 1000 fold. For the same compound, the sensitivity to ouabain entry in series [3] is “highly sensitive”. For the same compound, the “cell health on continuous incubation” value in series [4] (incubated continuously with ouabain for longer than 24 hrs (data not shown)) is recorded as “unhealthy”. In addition, in series [4] (siGAPDH-LNP 10 ug/ml with 30 nM ouabain 24 h, then 48 hrs fresh medium), the “Expression of GAPDH” value is on record as “substantially reduced”.
